Experiments:
NNMT = target: T1, NNMT (Homo sapiens, UniProt P40261); parameters: The enzymatic activity assays were performed using NNMT at a final concentration of 100 nM diluted in assay buffer; settings: background section, cited from earlier work; for IC50: known NNMT inhibitors, read-out: IC50 against NNMT
T1 sequence (P40261 1-264): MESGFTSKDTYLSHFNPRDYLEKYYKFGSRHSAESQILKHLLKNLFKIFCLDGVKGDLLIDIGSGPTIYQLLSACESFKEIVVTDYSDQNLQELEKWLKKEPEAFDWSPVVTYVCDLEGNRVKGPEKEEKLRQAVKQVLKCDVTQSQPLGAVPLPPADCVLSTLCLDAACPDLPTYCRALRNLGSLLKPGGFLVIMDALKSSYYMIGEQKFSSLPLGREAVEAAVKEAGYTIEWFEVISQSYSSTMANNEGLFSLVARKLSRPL

[1] = cited from earlier work
U2OS cells = settings: cited from earlier work
high-fat DIO mice = settings: cited from earlier work
[2] = rapidly degraded by SAHH to adenosine and homocysteine; cited from earlier work
aged mouse model = settings: cited from earlier work
[3] = system: diet-induced obese (DIO) mice; settings: cited from earlier work
HSC-2 oral cancer cells = settings: cited from earlier work
[4] = system: HSC-2 human oral cancer cell line; assay: MTT cell proliferation assay, HSC-2; format: cell-based; settings: for % of DMSO control at 100 μM, HSC-2, 24 h: 24 h incubation; for % of DMSO control at 100 μM, HSC-2, 48 h: 48 h incubation; for % of DMSO control at 100 μM, HSC-2, 72 h: 72 h incubation
Experimental: (§1) UROTsa immortalized human urothelium cell line, HSC-2 human oral cancer cell line, T24 human bladder cancer cell line and A549 human lung cancer line were purchased from the American Type Culture Collection (ATCC, Rockville, MD, USA), and cultured in DMEM/F12 medium, supplemented with 10% fetal bovine serum and 50 μg/ml gentamicin, at 37° C. in a humidified 5% CO2 incubator. For each compound tested, powder was dissolved in DMSO at 100 mM concentration. This stock solution was then diluted in culture medium to final concentration values ranging between 1 μM and 100 μM. For each sample, DMSO was kept constant at 0.1% final concentration. The day before starting treatment, cells were seeded in 96-well plates, at a density of 2000 cells/well. Cells were allowed to attach overnight and then incubated with compounds at different final concentrations, or with DMSO only, for 24, 48 and 72 hours. All experiments were performed in triplicate.
(§2) Cell proliferation was determined using a colorimetric assay with 3-(4,5-dimethylthiazol-2-yl)-2,5-diphenyl tetrazolium bromide (MTT). The MTT assay measures the conversion of MTT to insoluble formazan by dehydrogenase enzymes of the intact mitochondria of living cells. Cell proliferation was evaluated by measuring the conversion of the tetrazolium salt MTT to formazan crystals upon treatment with compounds or DMSO only for 24, 48 and 72 hours. Briefly, cells were incubated for 2 hours at 37° C. with 100 μl fresh culture medium containing 5 μl of MTT reagent (5 mg/ml in PBS). The medium was removed and 200 μl isopropanol were added. The amount of formazan crystals formed correlated directly with the number of viable cells. The reaction product was quantified by measuring the absorbance at 540 nm using an ELISA plate reader. Experiments were repeated three times. Results were expressed as percentage of the control (control equals 100% and corresponds to the absorbance value of each sample at time zero) and presented as mean values±standard deviation of three independent experiments performed in triplicate.
(§3) Data were analysed using GraphPad Prism software for Windows (GraphPad Software, San Diego, CA). Significant differences between groups were determined using the one-way analysis of variance (ANOVA). A p value <0.05 was considered as statistically significant.

[5] = system: T24 human bladder cancer cell line; assay: MTT cell proliferation assay, T24; format: cell-based; settings: for % of DMSO control at 100 μM, T24, 24 h: 24 h incubation; for % of DMSO control at 100 μM, T24, 48 h: 48 h incubation; for % of DMSO control at 100 μM, T24, 72 h: 72 h incubation
Experimental: as §1, §2, §3

[6] = system: A549 human lung cancer line; assay: MTT cell proliferation assay, A549; format: cell-based; settings: for % of DMSO control at 100 μM, A549, 24 h: 24 h incubation; for % of DMSO control at 100 μM, A549, 48 h: 48 h incubation; for % of DMSO control at 100 μM, A549, 72 h: 72 h incubation
Experimental: as §1, §2, §3

[7] = cited from earlier work; remark: listed apart in the source
[8] = cited from earlier work; remark: listed apart in the source

C[n+]1cccc2ccccc21 [Compound 1-MQ]
IC50 (NNMT): 12100 nM

NC(=O)c1cccc(C#CCN(CC[C@H](N)C(=O)O)C[C@H]2O[C@@H](n3cnc4c(N)ncnc43)[C@H](O)[C@@H]2O)c1 [LL320]
cell permeability [1]: poor cell permeability

Cc1cccc2ccc[n+](C)c12 [8-methyl-1-MQ]
IC50 (NNMT): 1800 nM

NC(=O)c1cccc(C#C[C@@H](CC[C@H](N)C(=O)O)C[C@H]2O[C@@H](n3cnc4c(N)ncnc43)[C@H](O)[C@@H]2O)c1 [NS1]
MNA levels in cells (U2OS cells): only moderately decreased
Ki (NNMT; known bisubstrate inhibitors, read-out: Ki against NNMT): 0.5 nM

COc1ccc(C(N)=O)cn1 [JBSNF-000088]
body weight (high-fat DIO mice): reduce
glucose tolerance (high-fat DIO mice): normalize
insulin sensitivity (high-fat DIO mice): improve
plasma levels of MNA (high-fat DIO mice): reduce
IC50 (NNMT): 2400 nM

NC(=O)c1cccc(CCN(CC[C@H](N)C(=O)O)C[C@H]2O[C@@H](n3cnc4c(N)ncnc43)[C@H](O)[C@@H]2O)c1 [MS2756]
IC50 (NNMT): 160000 nM

Nc1ncnc2c1ncn2[C@@H]1O[C@H](CSCC[C@H](N)C(=O)O)[C@@H](O)[C@H]1O [SAH, S-adenosyl-1-homocysteine]
activity in cellular assays [2]: loses its activity

C[n+]1cccc2c(N)cccc21 [Compound 5-amino-1-MQ, 5-amino-1-MQ]
muscle regeneration (aged mouse model): accelerate muscle regeneration
adipocyte size [3]: decreased
body weight and white adipose mass [3]: significantly reduced
plasma total cholesterol levels [3]: lowered
IC50 (NNMT): 1200 nM

Nc1ncnc2c1ncn2[C@@H]1O[C@H](CN(CC[C@H](N)C(=O)O)Cc2ccc3ccccc3c2)[C@@H](O)[C@H]1O [GYZ191]
effect on cell viability (HSC-2 oral cancer cells): significant inhibitory effect

CCCOC(=O)[C@H](CCN(C/C=C/c1ccc(C#N)cc1)C[C@H]1O[C@@H](n2cnc3c(N)ncnc32)[C@H](O)[C@@H]1O)NC(=O)CC(C)(C)c1c(C)cc(C)cc1OC(C)=O [GYZ-580]
% of DMSO control at 100 μM, HSC-2, 24 h [4]: 59 % of DMSO control
% of DMSO control at 100 μM, HSC-2, 48 h [4]: 41 % of DMSO control
% of DMSO control at 100 μM, HSC-2, 72 h [4]: 16 % of DMSO control
% of DMSO control at 100 μM, T24, 24 h [5]: 72 % of DMSO control
% of DMSO control at 100 μM, T24, 48 h [5]: 36 % of DMSO control
% of DMSO control at 100 μM, T24, 72 h [5]: 15 % of DMSO control
% of DMSO control at 100 μM, A549, 24 h [6]: 83 % of DMSO control
% of DMSO control at 100 μM, A549, 48 h [6]: 45 % of DMSO control
% of DMSO control at 100 μM, A549, 72 h [6]: 25 % of DMSO control

COC(=O)[C@@H](N)CCN(C/C=C/c1ccc(C#N)cc1)C[C@H]1O[C@@H](n2cnc3c(N)ncnc32)[C@H](O)[C@@H]1O [GYZ-494]
% of DMSO control at 100 μM, HSC-2, 24 h [4]: 100 % of DMSO control
% of DMSO control at 100 μM, HSC-2, 48 h [4]: 100 % of DMSO control
% of DMSO control at 100 μM, HSC-2, 72 h [4]: 87 % of DMSO control
% of DMSO control at 100 μM, T24, 24 h [5]: 100 % of DMSO control
% of DMSO control at 100 μM, T24, 48 h [5]: 76 % of DMSO control
% of DMSO control at 100 μM, T24, 72 h [5]: 100 % of DMSO control
% of DMSO control at 100 μM, A549, 24 h [6]: 100 % of DMSO control
% of DMSO control at 100 μM, A549, 48 h [6]: 100 % of DMSO control
% of DMSO control at 100 μM, A549, 72 h [6]: 88 % of DMSO control

Nc1ncnc2c1ncn2[C@@H]1O[C@H](C[C@@H](N)CC[C@H](N)C(=O)O)[C@@H](O)[C@H]1O [Sinefungin, sinefungin]
cell membrane permeability [7]: low cell membrane permeability
toxicity in animal models [8]: severe toxicity

NC(=O)c1cccc(CCN(CCC[C@H](N)C(=O)O)C[C@H]2O[C@@H](n3cnc4c(N)ncnc43)[C@H](O)[C@@H]2O)c1 [MS2734]
IC50 (NNMT): 14000 nM
